Results as given in the NIST ThermoML archive (doi:10.1021/je800110r).

Conditions: 323.14 K, Liquid, Vibrating tube method

CCCCCCCCCC [decane]
Conditions	mass density [kg/m3]
21395 kPa	724.8
21420 kPa	724.9
21444 kPa	724.9
21473 kPa	724.8
21501 kPa	724.8
21526 kPa	725
21647 kPa	725
22710 kPa	725.7
22733 kPa	725.8
22768 kPa	725.8
22800 kPa	725.9
22832 kPa	725.9
22860 kPa	725.9
22884 kPa	725.9
22916 kPa	725.8
22948 kPa	726
22977 kPa	726.1
23013 kPa	726
23034 kPa	726.1
23071 kPa	726.1
23103 kPa	726.1
23124 kPa	726.1
23149 kPa	726.2
23170 kPa	726.2
23191 kPa	726.2
23219 kPa	726.2
23256 kPa	726.1
23294 kPa	726.2
23332 kPa	726.3
23357 kPa	726.2
23391 kPa	726.2
23412 kPa	726.2
23442 kPa	726.3
23475 kPa	726.4
23509 kPa	726.3
23539 kPa	726.3
23578 kPa	726.5
23612 kPa	726.3
23710 kPa	726.6
23736 kPa	726.5
23762 kPa	726.5
23806 kPa	726.6
23832 kPa	726.7
23854 kPa	726.6
23881 kPa	726.6
23912 kPa	726.7
23938 kPa	726.7
23970 kPa	726.7
23996 kPa	726.7
24633 kPa	727.3
24707 kPa	727.3
24732 kPa	727.3
24765 kPa	727.4
24799 kPa	727.2
24832 kPa	727.4
24861 kPa	727.4
24899 kPa	727.4
24942 kPa	727.4
24979 kPa	727.4
25000 kPa	727.5
25022 kPa	727.4
25061 kPa	727.6
25103 kPa	727.6
25129 kPa	727.5
25160 kPa	727.6
25190 kPa	727.7
25216 kPa	727.6
25251 kPa	727.7
25291 kPa	727.6
25325 kPa	727.7
25361 kPa	727.8
25383 kPa	727.8
25422 kPa	727.7
25458 kPa	727.8
25493 kPa	727.9
25521 kPa	727.8
25556 kPa	727.8
25593 kPa	727.9
25624 kPa	727.9
25670 kPa	727.9
25706 kPa	728
25742 kPa	727.9
25783 kPa	728
25828 kPa	728
26192 kPa	728.4
26343 kPa	728.4
26723 kPa	728.6
26758 kPa	728.8
26793 kPa	728.7
26842 kPa	728.8
26872 kPa	728.8
26912 kPa	728.8
26952 kPa	728.8
26992 kPa	728.9
27043 kPa	729
27362 kPa	729.1
27409 kPa	729.2
27440 kPa	729.2
27472 kPa	729.2
27524 kPa	729.4
27568 kPa	729.3
27605 kPa	729.3
27657 kPa	729.4
27684 kPa	729.3
27758 kPa	729.5
27796 kPa	729.5
27882 kPa	729.5
27920 kPa	729.5
27958 kPa	729.5
27997 kPa	729.6
28042 kPa	729.7
28096 kPa	729.7
28135 kPa	729.7
28185 kPa	729.7
28230 kPa	729.8
28317 kPa	729.9
28358 kPa	729.8
28393 kPa	729.7
28457 kPa	730.1
28496 kPa	730
28541 kPa	730
28571 kPa	730.1
28605 kPa	730
28640 kPa	730.1
28675 kPa	730.1
28714 kPa	730.1
28744 kPa	730.2
28779 kPa	730.1
28819 kPa	730.2
28844 kPa	730.2
28887 kPa	730.3
28913 kPa	730.3
28938 kPa	730.2
28968 kPa	730.3
28999 kPa	730.4
29030 kPa	730.4
29065 kPa	730.4
